The source of these data is patent US9725449B2, “Tricyclic compounds as anticancer agents” (BRISTOL-MYERS SQUIBB COMPANY, priority 2015, dated 2017).

The term IC50 denotes the concentration that inhibits the measured activity by half.

Structures are written as SMILES.

The target in the assay is BRD4 (Homo sapiens, UniProt O60885). The experiment in a line: Time resolved fluorescence resonance energy transfer (TR-FRET) binding assay, bromodomain BRD4. Particulars: one of the FRET assays described; read-out: FRET BRD4 IC50. On the technique in general: Time-resolved FRET reads energy transfer from a long-lived donor to a nearby acceptor.
`[2H]C([2H])([2H])c1nnn(C)c1-c1cnc2c3ccc(-c4c(C([2H])([2H])[2H])nnn4C)nc3n(C(c3ncccc3F)C3CCOCC3)c2c1` (stereo not drawn) [Example 247, 8-[(3-Fluoropyridin-2-yl)(oxan-4-yl)methyl]-5,11-bis[4-(^2H3)methyl-1-methyl-1H-1,2,3-triazol-5-yl]-3,8,10-triazatricyclo[7.4.0.0^2,^7]trideca-1(13),2(7),3,5,9,11-hexaene]: the IC50 is less than 1 nM.

Regarding `[2H]C([2H])([2H])c1nnn(C)c1-c1cnc2c3cc(Cl)cnc3n([C@H](c3ccccc3)C3CCOCC3)c2c1` [Example 347, 12-Chloro-5-[4-(^2H3)methyl-1-methyl-1H-1,2,3-triazol-5-yl]-8-[(S)-oxan-4-yl(phenyl)methyl]-3,8,10-triazatricyclo[7.4.0.0^2,^7]trideca-1(13),2(7),3,5,9,11-hexaene], the IC50 was less than 1500 nM.

`[2H]C([2H])([2H])c1nnn(C)c1-c1cnc2c3ccc(C4=CCSCC4)nc3n([C@H](c3ccccc3)C3CCOCC3)c2c1` [Example 203, 11-(3,6-Dihydro-2H-thiopyran-4-yl)-5-[4-(^2H3)methyl-1-methyl-1H-1,2,3-triazol-5-yl]-8-[(S)-oxan-4-yl(phenyl)methyl]-3,8,10-triazatricyclo[7.4.0.0^2,^7]trideca-1(9),2(7),3,5,10,12-hexaene]: the IC50 is less than 10 nM.

As for `COc1nnn(C)c1-c1cnc2c3cnc(N4C[C@@H](C)S(=O)(=O)[C@H](C)C4)nc3n([C@H](c3ccccc3)C3CCOCC3)c2c1` [Example 158, (2R,6R)-4-[5-(4-Methoxy-1-methyl-1H-1,2,3-triazol-5-yl)-8-[(S)-oxan-4-yl(phenyl)methyl]-3,8,10,12-tetraazatricyclo[7.4.0.0^2,^7]trideca-1(9),2(7),3,5,10,12-hexaen-11-yl]-2,6-dimethyl-1λ^6,4-thiomorpholine-1,1-dione], the IC50 was less than 10 nM.

In the case of `Cc1nnn(C)c1-c1cnc2c3ccc(N4CC(C)S(=O)(=O)C(C)C4)nc3n([C@H](c3ccccc3)C3CCOCC3)c2c1` (single isomer, unassigned) [Example 190], the IC50 was less than 1 nM.

For `COC(=O)c1cnc(OC)c2c3ncc(-c4c(C)noc4C)cc3n([C@H](c3ccccc3)C3CCOCC3)c12` [Example 140, Methyl 5-(dimethyl-1,2-oxazol-4-yl)-13-methoxy-8-[(S)-oxan-4-yl(phenyl)methyl]-3,8,12-triazatricyclo[7.4.0.0^2,^7]trideca-1(13),2(7),3,5,9,11-hexaene-10-carboxylate], the IC50 was less than 1 nM.

For `[2H]C([2H])([2H])c1nnn(C)c1-c1cnc2c3c(OC)ncc(CO)c3n([C@H](c3ccccc3)C3CCOCC3)c2c1` [Example 139, {13-methoxy-5-[4-(^2H3)methyl-1-methyl-1H-1,2,3-triazol-5-yl]-8-[(S)-oxan-4-yl(phenyl)methyl]-3,8,12-triazatricyclo[7.4.0.0^2,^7]trideca-1(9),2,4,6,10,12-hexaen-10-yl}methanol], the IC50 was less than 10 nM.

Turning to `[2H]C([2H])([2H])c1nnn(C)c1-c1cnc2c3cc(C(C)(C)O)cnc3n([C@H](c3ccccc3)C3CCOCC3)c2c1` [Example 349, 2-{5-[4-(^2H3)Methyl-1-methyl-1H-1,2,3-triazol-5-yl]-8-[(S)-oxan-4-yl(phenyl)methyl]-3,8,10-triazatricyclo[7.4.0.0^2,^7]trideca-1(13),2(7),3,5,9,11-hexaen-12-yl}propan-2-ol], the IC50 is less than 1 nM.

As for `CC(=O)c1ccc(-c2ccc3c4ncc(-c5c(C)nnn5C)cc4n([C@H](c4ccccc4)C4CCOCC4)c3n2)s1` [Example 162, 1-{5-[5-(Dimethyl-1H-1,2,3-triazol-5-yl)-8-[(S)-oxan-4-yl(phenyl)methyl]-3,8,10-triazatricyclo[7.4.0.0^2,^7]trideca-1(9),2(7),3,5,10,12-hexaen-11-yl]thiophen-2-yl}ethan-1-one], the IC50 is less than 10 nM.

Regarding `COc1nccc2c3ncc(-c4c(C)nnn4C)cc3n(C(c3cccc(F)c3F)C3CCOCC3)c12` (single isomer, unassigned) [Example 22, 8-[(2,3-Difluorophenyl)(oxan-4-yl)methyl]-5-(dimethyl-1H-1,2,3-triazol-5-yl)-10-methoxy-3,8,11-triazatricyclo[7.4.0.0^2,^7]trideca-1(13),2(7),3,5,9,11-hexaene], the concentration for half-maximal inhibition (IC50) is less than 10 nM.

For `Cc1nnn(C)c1-c1cnc2c3ccc(C4=CCN(C)CC4)nc3n([C@H](c3ccccc3F)C3CCOCC3)c2c1` [Example 230, 5-(Dimethyl-1H-1,2,3-triazol-5-yl)-8-[(S)-(2-fluorophenyl)(oxan-4-yl)methyl]-11-(1-methyl-1,2,3,6-tetrahydropyridin-4-yl)-3,8,10-triazatricyclo[7.4.0.0^2,^7]trideca-1(13),2(7),3,5,9,11-hexaene], the IC50 is less than 10 nM.

For `Cc1nnn(C)c1-c1cnc2c3ccnc(Cl)c3n([C@H](c3ccccc3)C3CCOCC3)c2c1` [Example 6, 10-Chloro-5-(dimethyl-1H-1,2,3-triazol-5-yl)-8-[(S)-oxan-4-yl(phenyl)methyl]-3,8,11-triazatricyclo[7.4.0.0^2,^7]trideca-1(13),2(7),3,5,9,11-hexaene], the IC50 was less than 1 nM.

As for `Cc1nnn(C)c1-c1cnc2c3ccc(C(C)(C)O)nc3n([C@H](c3ccccc3)C3CCOCC3)c2c1` [Example 174, 2-[5-(Dimethyl-1H-1,2,3-triazol-5-yl)-8-[(S)-oxan-4-yl(phenyl)methyl]-3,8,10-triazatricyclo[7.4.0.0^2,^7]trideca-1(9),2(7),3,5,10,12-hexaen-11-yl]propan-2-ol], the IC50 is less than 1 nM.

On to `COc1ncc(S(C)(=O)=O)c2c1c1ncc(-c3c(C)noc3C)cc1n2C(c1ccccc1)C1CCC(F)(F)CC1` (single isomer, unassigned) [Example 89, 8-[(4,4-Difluorocyclohexyl)(phenyl)methyl]-5-(dimethyl-1,2-oxazol-4-yl)-10-methanesulfonyl-13-methoxy-3,8,12-triazatricyclo[7.4.0.0^2,^7]trideca-1(13),2(7),3,5,9,11-hexaene], for which the IC50 was less than 1500 nM.

Regarding `CNS(=O)(=O)c1ccc2c3ncc(-c4c(C)nnn4C)cc3n([C@H](c3ccccc3)C3CCOCC3)c2n1` [Example 199, 5-(Dimethyl-1H-1,2,3-triazol-5-yl)-N-methyl-8-[(S)-oxan-4-yl(phenyl)methyl]-3,8,10-triazatricyclo[7.4.0.0^2,^7]trideca-1(9),2(7),3,5,10,12-hexaene-11-sulfonamide], the IC50 is less than 10 nM.

Turning to `[2H]C([2H])([2H])c1nnn(C)c1-c1cnc2c3cnc(-c4c(C([2H])([2H])[2H])nnn4C)cc3n([C@H](c3ccc(F)cc3)C3CCOCC3)c2c1` [Example 160, 8-[(S)-(4-Fluorophenyl)(oxan-4-yl)methyl]-5,11-bis[4-(^2H3)methyl-1-methyl-1H-1,2,3-triazol-5-yl]-3,8,12-triazatricyclo[7.4.0.0^2,^7]trideca-1(13),2(7),3,5,9,11-hexaene], the IC50 is less than 10 nM.

Take `[2H]C([2H])([2H])c1nnn(C)c1-c1cnc2c3c(OC)nc(N4CCC(F)(F)CC4)cc3n([C@H](c3ccccc3)C3CCOCC3)c2c1` [Example 343, 11-(4,4-Difluoropiperidin-1-yl)-13-methoxy-5-[4-(^2H3)methyl-1-methyl-1H-1,2,3-triazol-5-yl]-8-[(S)-oxan-4-yl(phenyl)methyl]-3,8,12-triazatricyclo[7.4.0.0^2,^7]trideca-1(13),2(7),3,5,9,11-hexaene]: the IC50 is less than 1 nM.

As to `COc1nccc2c3ncc(-c4c(C)nnn4C)cc3n(C(c3ccc(F)cc3F)C3CCOCC3)c12` (racemic) [Example 25, 8-[(2,4-Difluorophenyl)(oxan-4-yl)methyl]-5-(dimethyl-1H-1,2,3-triazol-5-yl)-10-methoxy-3,8,11-triazatricyclo[7.4.0.0^2,^7]trideca-1(13),2(7),3,5,9,11-hexaene], the concentration for half-maximal inhibition (IC50) was less than 10 nM.

As for `[2H]C([2H])([2H])c1nnn(C)c1-c1cnc2c3c(OC)ncc(S(C)(=O)=O)c3n(C(c3ncccc3F)C3CCC(F)(F)CC3)c2c1` (stereo not drawn) [Example 73, 8-[(4,4-Difluorocyclohexyl)(3-fluoropyridin-2-yl)methyl]-10-methanesulfonyl-13-methoxy-5-[4-(^2H3)methyl-1-methyl-1H-1,2,3-triazol-5-yl]-3,8,12-triazatricyclo[7.4.0.0^2,^7]trideca-1(13),2(7),3,5,9,11-hexaene], the IC50 is less than 1500 nM.

As for `COc1nccc2c3ncc(-c4c(C)nnn4C)cc3n(C(c3cccc(F)c3)C3CCOCC3)c12` (single isomer, unassigned) [Example 21, 5-(Dimethyl-1H-1,2,3-triazol-5-yl)-8-[(3-fluorophenyl)(oxan-4-yl)methyl]-10-methoxy-3,8,11-triazatricyclo[7.4.0.0^2,^7]trideca-1(13),2(7),3,5,9,11-hexaene], the IC50 is less than 1500 nM.

Take `[2H]C([2H])([2H])c1nnn(C)c1-c1cnc2c3c(OCC)ncc(S(C)(=O)=O)c3n(C(c3ncccc3F)C3CCOCC3)c2c1` (stereo not drawn) [Example 69, 13-Ethoxy-8-[(3-fluoropyridin-2-yl)(oxan-4-yl)methyl]-10-methanesulfonyl-5-[4-(^2H3)methyl-1-methyl-1H-1,2,3-triazol-5-yl]-3,8,12-triazatricyclo[7.4.0.0^2,^7]trideca-1(13),2(7),3,5,9,11-hexaene]: the IC50 is less than 1500 nM.

Turning to `[2H]C([2H])([2H])c1nnn(C)c1-c1cnc2c3c(OCC(C)C)ncc(S(C)(=O)=O)c3n([C@H](c3ccccc3)C3CCOCC3)c2c1` [Example 108, 10-Methanesulfonyl-5-[4-(^2H3)methyl-1-methyl-1H-1,2,3-triazol-5-yl]-13-(2-methylpropoxy)-8-[(S)-oxan-4-yl(phenyl)methyl]-3,8,12-triazatricyclo[7.4.0.0^2,^7]trideca-1(13),2(7),3,5,9,11-hexaene], the IC50 is less than 10 nM.

On to `Cc1nnn(C)c1-c1cnc2c3ccnc(N4CCN(C)CC4)c3n([C@H](c3ccccc3)C3CCOCC3)c2c1` [Example 8, 5-(Dimethyl-1H-1,2,3-triazol-5-yl)-10-(4-methylpiperazin-1-yl)-8-[(S)-oxan-4-yl(phenyl)methyl]-3,8,11-triazatricyclo[7.4.0.0^2,^7]trideca-1(13),2(7),3,5,9,11-hexaene], for which the IC50 was less than 10 nM.

Regarding `CCCC(c1ncccc1F)n1c2cc(-c3c(C)nnn3C)ncc2c2ncc(C(C)(C)O)cc21` (single isomer, unassigned) [Example 371], the IC50 is less than 10 nM.
